PubChem BioAssay (NCI)
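Assay format: 96-well plates, 48-hour exposure. TGI: concentration producing complete growth inhibition.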

Assays:
Assay in all cases: NCI tumour cell line growth inhibition, 48 h
[1] = test system: HS 578T breast
[2] = test system: MDA-MB-435
[3] = test system: NCI-H522 lung
[4] = test system: UACC-62 melanoma
[5] = test system: UACC-257 melanoma
[6] = test system: NCI-H460 lung
[7] = test system: MDA-N
[8] = test system: K-562 leukemia
[9] = test system: SF-268 CNS
[10] = test system: SNB-19 CNS
[11] = test system: OVCAR-3 ovarian
[12] = test system: EKVX NSCLC
[13] = test system: MOLT-4 leukemia
[14] = test system: SK-MEL-2 melanoma
[15] = test system: HCT-116 colon
[16] = test system: OVCAR-4 ovarian
[17] = test system: ACHN renal
[18] = test system: 786-0 renal
[19] = test system: RXF 393 renal
[20] = test system: T-47D breast
[21] = test system: SN12C renal
[22] = test system: BT-549 breast
[23] = test system: HOP-92 NSCLC
[24] = test system: A498 renal
[25] = test system: IGROV1 ovarian
[26] = test system: NCI-H23 lung
[27] = test system: A549 NSCLC
[28] = test system: SF-539 CNS
[29] = test system: HOP-62 NSCLC
[30] = test system: CAKI-1 renal
[31] = test system: RPMI-8226 leukemia
[32] = test system: SR leukemia
[33] = test system: M14 melanoma
[34] = test system: PC-3 prostate
[35] = test system: MDA-MB-231 breast
[36] = test system: MALME-3M melanoma
[37] = test system: U251 CNS
[38] = test system: MCF7 breast
[39] = test system: TK-10 renal
[40] = test system: LOX IMVI melanoma
[41] = test system: SF-295 CNS
[42] = test system: HCT-15 colon
[43] = test system: SW-620 colon
[44] = test system: CCRF-CEM leukemia
[45] = test system: HL-60(TB) leukemia
[46] = test system: COLO 205 colon
[47] = test system: DU-145 prostate
[48] = test system: KM12 colon
[49] = test system: UO-31 renal
[50] = test system: OVCAR-5 ovarian
[51] = test system: SK-MEL-28 melanoma
[52] = test system: SK-MEL-5 melanoma
[53] = test system: SNB-75 CNS
[54] = test system: HCC-2998 colon
[55] = test system: SK-OV-3 ovarian
[56] = test system: NCI-H226 lung
[57] = test system: NCI/ADR-RES ovarian
[58] = test system: HT29 colon
[59] = test system: OVCAR-8 ovarian

`CC1=C(C(=O)NC2CCCCC2)CC(C(=O)NC2CCCCC2)=C(C)N1` was tested, and the TGI [1] was > 100 µM, the TGI [2] was > 100 µM and the TGI [3] was > 100 µM. For the same compound, the TGI [4] was > 100 µM, the TGI [5] was > 100 µM and the TGI [6] was > 100 µM. For the same compound, the TGI [7] was > 100 µM, the TGI [8] was > 100 µM and the TGI [9] was > 100 µM. For the same compound, the TGI [10] was > 100 µM, the TGI [11] was > 100 µM and the TGI [12] was > 100 µM. For the same compound, the TGI [13] was > 100 µM, the TGI [14] was > 100 µM and the TGI [15] was > 100 µM. For the same compound, the TGI [16] was > 100 µM, the TGI [17] was > 100 µM and the TGI [18] was > 100 µM. The TGI [19] was > 100 µM, the TGI [20] was > 100 µM and the TGI [21] was > 100 µM. The TGI [22] was > 100 µM, the TGI [23] was > 100 µM and the TGI [24] was > 100 µM. For the same compound, the TGI [25] was > 100 µM, the TGI [26] was > 100 µM and the TGI [27] was > 100 µM. For the same compound, the TGI [28] was > 100 µM, the TGI [29] was > 100 µM and the TGI [30] was > 100 µM. The TGI [31] was > 100 µM, the TGI [32] was > 100 µM and the TGI [33] was > 100 µM. The TGI [34] was > 100 µM, the TGI [35] was > 100 µM and the TGI [36] was > 100 µM. For the same compound, the TGI [37] was > 100 µM, the TGI [38] was > 100 µM and the TGI [39] was > 100 µM. For the same compound, the TGI [40] was > 100 µM, the TGI [41] was > 100 µM and the TGI [42] was > 100 µM. The TGI [43] was > 100 µM, the TGI [44] was > 100 µM and the TGI [45] was > 100 µM. For the same compound, the TGI [46] was > 100 µM, the TGI [47] was > 100 µM and the TGI [48] was > 100 µM. For the same compound, the TGI [49] was > 100 µM, the TGI [50] was > 100 µM and the TGI [51] was > 100 µM. For the same compound, the TGI [52] was > 100 µM, the TGI [53] was 64.9 µM and the TGI [54] was > 100 µM. For the same compound, the TGI [55] was > 100 µM.

`NC(N)=NS(=O)(=O)c1ccc(NC(=O)c2cccc3c(NNc4ccc(S(N)(=O)=O)cc4)c4ccccc4nc23)cc1` was tested, and the TGI [1] was > 100 µM, the TGI [2] was > 100 µM and the TGI [3] was 91.6 µM. The TGI [4] was > 100 µM, the TGI [5] was > 100 µM and the TGI [6] was > 100 µM. The TGI [7] was > 100 µM, the TGI [8] was 55 µM and the TGI [9] was > 100 µM. For the same compound, the TGI [10] was > 100 µM, the TGI [11] was > 100 µM and the TGI [12] was > 100 µM. For the same compound, the TGI [13] was 74.1 µM, the TGI [14] was > 100 µM and the TGI [15] was > 100 µM. For the same compound, the TGI [16] was > 100 µM, the TGI [17] was > 100 µM and the TGI [18] was > 100 µM. The TGI [19] was > 100 µM, the TGI [20] was 79.1 µM and the TGI [21] was > 100 µM. For the same compound, the TGI [22] was > 100 µM, the TGI [23] was 85.6 µM and the TGI [25] was > 100 µM. The TGI [26] was > 100 µM, the TGI [56] was > 100 µM and the TGI [27] was > 100 µM. For the same compound, the TGI [28] was > 100 µM, the TGI [57] was > 100 µM and the TGI [29] was > 100 µM. The TGI [58] was > 100 µM, the TGI [30] was > 100 µM and the TGI [31] was > 100 µM. The TGI [32] was 82.6 µM, the TGI [33] was > 100 µM and the TGI [34] was > 100 µM. The TGI [35] was > 100 µM, the TGI [36] was 88.8 µM and the TGI [37] was > 100 µM. The TGI [38] was 86.3 µM, the TGI [39] was > 100 µM and the TGI [40] was 36.5 µM. The TGI [41] was > 100 µM, the TGI [42] was > 100 µM and the TGI [43] was > 100 µM. The TGI [44] was > 100 µM, the TGI [45] was 66.2 µM and the TGI [46] was > 100 µM. For the same compound, the TGI [47] was > 100 µM, the TGI [48] was > 100 µM and the TGI [49] was > 100 µM. The TGI [50] was > 100 µM, the TGI [51] was > 100 µM and the TGI [52] was > 100 µM. For the same compound, the TGI [53] was > 100 µM, the TGI [59] was > 100 µM and the TGI [54] was > 100 µM. For the same compound, the TGI [55] was > 100 µM.
